According to patent publication US8822449B2, “Substituted aminoindanes and analogs thereof, and the pharmaceutical use thereof” (Sanofi, priority 2008, dated 2014):

target: T1, sodium-proton exchanger of subtype 3 (NHE3) (Homo sapiens, UniProt P48764); test: Recovery of intracellular pH (pHi) after acidification in LAP1 cells stably expressing NHE3 (BCECF fluorescence, FLIPR); assay type: cell-based; settings: LAP1, read-out: Activity range (inhibitory effect on NHE3)
T1 construct: expressed in transfected cells
T1 sequence (P48764 26-834): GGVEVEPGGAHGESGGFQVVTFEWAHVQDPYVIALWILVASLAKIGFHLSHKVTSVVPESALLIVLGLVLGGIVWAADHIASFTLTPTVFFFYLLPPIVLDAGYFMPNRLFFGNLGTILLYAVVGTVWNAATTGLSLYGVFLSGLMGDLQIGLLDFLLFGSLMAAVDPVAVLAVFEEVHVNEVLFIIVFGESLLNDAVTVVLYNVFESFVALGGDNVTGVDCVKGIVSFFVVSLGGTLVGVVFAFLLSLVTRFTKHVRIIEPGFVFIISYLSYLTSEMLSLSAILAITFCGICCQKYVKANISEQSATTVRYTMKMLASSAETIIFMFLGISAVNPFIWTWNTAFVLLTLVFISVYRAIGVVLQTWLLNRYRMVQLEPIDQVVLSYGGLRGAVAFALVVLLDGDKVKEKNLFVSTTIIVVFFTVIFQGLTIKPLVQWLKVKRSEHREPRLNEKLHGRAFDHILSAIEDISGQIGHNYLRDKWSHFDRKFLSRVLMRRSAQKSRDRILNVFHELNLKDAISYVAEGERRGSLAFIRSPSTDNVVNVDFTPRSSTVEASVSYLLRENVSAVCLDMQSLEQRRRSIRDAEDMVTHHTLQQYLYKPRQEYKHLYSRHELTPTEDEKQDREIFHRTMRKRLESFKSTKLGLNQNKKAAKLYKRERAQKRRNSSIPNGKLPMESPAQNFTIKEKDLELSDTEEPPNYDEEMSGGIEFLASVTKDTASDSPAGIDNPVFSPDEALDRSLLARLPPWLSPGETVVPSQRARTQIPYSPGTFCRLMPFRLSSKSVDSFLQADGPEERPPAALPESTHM

**Q.** For `CC(=O)Nc1ccccc1OC1c2ccccc2CC1N1CCCC1` (racemic) [Example 635, N-[2-(rac-trans-(1,2)-2-pyrrolidin-1-ylindan-1-yloxy)phenyl]acetamide], which inhibition at 10 µM is on record?
**A.** 20 to 50%

same assay, conditions: LAP1 cells stably expressing NHE3; pH recovery after acidification; range 1 is % inhibition at 10 μM; read-out: Activity range (inhibitory effect on NHE3)

**Q.** Which IC50 does the source give for `CS(=O)(=O)c1ccc(O[C@H]2c3cc(Cl)cc(Cl)c3C[C@@H]2N2CCC[C@@H](NCC#N)C2)cc1` [Example 225, {(R)-1-[trans-(1S,2S)-4,6-dichloro-1-(4-methanesulfonylphenoxy)indan-2-yl]piperidin-3-ylamino}acetonitrile] here?
**A.** < 1 µM

**Q.** `NC(=O)Nc1cccc(O[C@@H]2c3ccccc3C[C@H]2N2CCC[C@@H](N)C2)c1` (racemic) [Example 231, {3-[rac-trans-(1,2)-2-((R)-3-aminopiperidin-1-yl)indan-1-yloxy]phenyl}urea] was tested. Which IC50 did it give?
**A.** < 1 µM

**Q.** With `CC(=O)Nc1cccc(O[C@H]2c3cccc(Cl)c3C[C@@H]2N2CCCC2)c1` (racemic) [Example 649, N-[3-(rac-trans-(1,2)-4-chloro-2-pyrrolidin-1-ylindan-1-yloxy)phenyl]acetamide] as the molecule, how does the inhibition at 10 µM read?
**A.** 20 to 50%

**Q.** Which IC50 does the source give for `CS(=O)(=O)c1ccc(O[C@H]2c3cc(Cl)cc(Cl)c3C[C@@H]2N2CC[C@H](F)C2)cc1` [Example 196, (S)-1-[trans-(1S,2S)-4,6-dichloro-1-(4-methanesulfonylphenoxy)indan-2-yl]-3-fluoropyrrolidine] here?
**A.** < 1 µM

**Q.** `N[C@H]1CCCN([C@H]2CCc3ccccc3[C@@H]2Oc2ccc(N3C(=O)CCC3=O)cc2)C1` (racemic) [Example 328, 1-{4-[rac-trans-(1,2)-2-((S)-3-aminopiperidin-1-yl)-1,2,3,4-tetrahydronaphthalen-1-yloxy]phenyl}pyrrolidine-2,5-dione] was tested. Which inhibition at 10 µM did it give?
**A.** 20 to 50%

**Q.** For `N#Cc1ccc(O[C@H]2c3ccccc3CC[C@@H]2N2CCC[C@H](N)C2)cc1` (racemic) [Example 535, 4-[rac-trans-(1,2)-2-((S)-3-aminopiperidin-1-yl)-1,2,3,4-tetrahydronaphthalen-1-yloxy]benzonitrile], which IC50 is on record?
**A.** 1 to 10 µM

**Q.** For `Nc1ccc2c(O[C@H]3c4ccccc4CC[C@@H]3N3CCC[C@@H](N)C3)cccc2c1` (racemic) [Example 80, (R)-1-[rac-trans-(1,2)-1-(6-aminonaphthalen-1-yloxy)-1,2,3,4-tetrahydronaphthalen-2-yl]piperidin-3-ylamine], which IC50 is on record?
**A.** 1 to 10 µM

**Q.** How did the IC50 turn out when `CC(=O)Nc1cccc(O[C@H]2c3cc(Cl)cc(Cl)c3C[C@@H]2N2CCC[C@@H](N)C2)c1` [Example 690, N-{3-[trans-(1S,2S)-2-((R)-3-aminopiperidin-1-yl)-4,6-dichloroindan-1-yloxy]phenyl}acetamide] was run?
**A.** < 1 µM

**Q.** With `COc1ccc(C)cc1O[C@@H]1c2ccccc2C[C@H]1N1CCC(CN)C1` (mixture of isomers) [Example 607, C-{1-[rac-trans-(1,2)-1-(2-methoxy-5-methylphenoxy)indan-2-yl]pyrrolidin-3-yl}methylamine] as the molecule, how does the IC50 read?
**A.** 1 to 10 µM

**Q.** With `CS(=O)(=O)c1ccc(O[C@H]2c3cc(Cl)c(Cl)cc3C[C@@H]2N2CCCNCC2)cc1` (racemic) [Example 286, 1-[rac-trans-(1,2)-5,6-dichloro-1-(4-methanesulfonylphenoxy)indan-2-yl]-[1,4]diazepane] as the molecule, how does the IC50 read?
**A.** 1 to 10 µM

**Q.** For `NCC1CCN([C@@H]2Cc3ccccc3[C@H]2Oc2ccc(N3CCNCC3)cc2)CC1` (racemic) [Example 619, C-{1-[rac-trans-(1,2)-1-(4-piperazin-1-ylphenoxy)indan-2-yl]piperidin-4-yl}methylamine], which IC50 is on record?
**A.** 1 to 10 µM

**Q.** `CS(=O)(=O)c1ccc(O[C@@H]2c3ccccc3C[C@H]2NC2CCC2)cc1` (racemic) [Example 708, Cyclobutyl-[rac-trans-(1,2)-1-(4-methanesulfonyl-phenoxy)-indan-2-yl]-amine] was tested. Which IC50 did it give?
**A.** 1 to 10 µM

**Q.** For `O=C1CNC(=O)N1c1ccc(O[C@H]2c3cc(Cl)cc(Cl)c3C[C@@H]2N2CC[C@@H](O)C2)cc1` [Example 426, 3-{4-[(1S,2S)-4,6-dichloro-2-((R)-3-hydroxypyrrolidin-1-yl)indan-1-yloxy]phenyl}imidazolidine-2,4-dione], which IC50 is on record?
**A.** < 1 µM

**Q.** `CCn1cnn(-c2ccc(O[C@H]3c4cc(Cl)cc(Cl)c4C[C@@H]3N3CC[C@@H](O)C3)cc2)c1=O` [Example 736, 2-{4-[trans-(1S,2S)-4,6-Dichloro-2-((R)-3-hydroxy-pyrrolidin-1-yl)-indan-1-yloxy]-phenyl}-4-ethyl-2,4-dihydro-[1,2,4]triazol-3-one] was tested. Which IC50 did it give?
**A.** 1 to 10 µM

**Q.** `Clc1cc(Cl)c2c(c1)[C@H](Oc1cccc(-n3cnnn3)c1)[C@@H](N1CCNCC1)C2` [Example 248, 1-[(1S,2S)-4,6-dichloro-1-(3-tetrazol-1-ylphenoxy)indan-2-yl]piperazine] was tested. Which IC50 did it give?
**A.** < 1 µM

**Q.** `N[C@H]1CCCN([C@@H]2Cc3ccccc3[C@H]2Oc2ccc(S(N)(=O)=O)c(Cl)c2Cl)C1` (racemic) [Example 536, 4-[rac-trans-(1,2)-2-((S)-3-aminopiperidin-1-yl)indan-1-yloxy]-2,3-dichlorobenzenesulfonamide] was tested. Which IC50 did it give?
**A.** 1 to 10 µM

**Q.** With `N#Cc1ccc(S[C@H]2c3ccccc3C[C@@H]2N2CCCC2)cc1` [Example 455, 4-((1S,2S)-2-pyrrolidin-1-ylindan-1-ylsulfanyl)benzonitrile] as the molecule, how does the inhibition at 10 µM read?
**A.** 20 to 50%

**Q.** How did the IC50 turn out when `CN(C1CCC1)[C@@H]1Cc2ccccc2[C@H]1Oc1ccc(S(C)(=O)=O)cc1` (racemic) [Example 734, Cyclobutyl-[rac-trans-(1,2)-1-(4-methanesulfonyl-phenoxy)-indan-2-yl]-methyl-amine] was run?
**A.** 1 to 10 µM

**Q.** For `CCCC1(N)CCCN([C@H]2Cc3c(Cl)cc(Cl)cc3[C@@H]2Oc2ccc(S(C)(=O)=O)cc2)C1` (stereo partly drawn) [Example 300, 1-[trans-(1S,2S)-4,6-dichloro-1-(4-methanesulfonylphenoxy)indan-2-yl]-3-propylpiperidin-3-ylamine], which IC50 is on record?
**A.** 1 to 10 µM

**Q.** How did the IC50 turn out when `CC(=O)Nc1cccc(O[C@H]2c3cc(Cl)cc(Cl)c3C[C@@H]2N2CC[C@@H](CO)C2)c1` [Example 695, N-{3-[trans-(1S,2S)-4,6-dichloro-2-((R)-3-hydroxymethylpyrrolidin-1-yl)indan-1-yloxy]phenyl}acetamide] was run?
**A.** 1 to 10 µM

**Q.** `CN1CCN([C@H]2Cc3c(Cl)cc(Cl)cc3[C@@H]2Oc2ccc(S(C)(=O)=O)cc2)CC1` [Example 306, 1-[trans-(1S,2S)-4,6-dichloro-1-(4-methanesulfonylphenoxy)indan-2-yl]-4-methylpiperazine] was tested. Which IC50 did it give?
**A.** 1 to 10 µM

**Q.** `N[C@@H]1CCCN([C@H]2CCc3ccccc3[C@@H]2Oc2cnc3ccccc3c2)C1` (racemic) [Example 87, (R)-1-[rac-trans-(1,2)-1-(quinolin-3-yloxy)-1,2,3,4-tetrahydronaphthalen-2-yl]piperidin-3-ylamine] was tested. Which inhibition at 10 µM did it give?
**A.** 20 to 50%

**Q.** With `Cc1c(Cl)cccc1O[C@H]1c2ccccc2CC[C@@H]1N1CCC[C@H](N)C1` (racemic) [Example 160, (S)-1-[rac-trans-(1,2)-1-(3-chloro-2-methylphenoxy)-1,2,3,4-tetrahydronaphthalen-2-yl]piperidin-3-ylamine] as the molecule, how does the inhibition at 10 µM read?
**A.** 20 to 50%

**Q.** Which inhibition at 10 µM does the source give for `CN(C)C[C@H]1Cc2c(Cl)cc(Cl)cc2[C@@H]1Oc1ccc(S(C)(=O)=O)cc1` (racemic) [Example 217, [rac-trans-(1,2)-4,6-dichloro-1-(4-methanesulfonylphenoxy)indan-2-ylmethyl]dimethylamine] here?
**A.** 20 to 50%

**Q.** `Cc1cc(C)n(-c2ccc(O[C@H]3c4cc(Cl)cc(Cl)c4C[C@@H]3N3CC[C@@H](O)C3)c(F)c2)n1` [Example 136, (R)-1-{trans-(1S,2S)-4,6-dichloro-1-[4-(3,5-dimethylpyrazol-1-yl)-2-fluorophenoxy]indan-2-yl}pyrrolidin-3-ol] was tested. Which inhibition at 10 µM did it give?
**A.** 20 to 50%

**Q.** With `O=C1OCc2cc(O[C@H]3c4ccccc4C[C@@H]3N3CCCC3)ccc21` (racemic) [Example 571, 5-(rac-trans-(1,2)-2-pyrrolidin-1-ylindan-1-yloxy)-3H-isobenzofuran-1-one] as the molecule, how does the IC50 read?
**A.** 1 to 10 µM

**Q.** For `CS(=O)(=O)c1ccc(O[C@H]2c3cc(Cl)cc(Cl)c3C[C@@H]2N2CCCNCC2)c(Cl)c1` [Example 295, 1-[trans-(1S,2S)-4,6-dichloro-1-(2-chloro-4-methanesulfonylphenoxy)indan-2-yl]-[1,4]diazepane], which IC50 is on record?
**A.** < 1 µM

**Q.** With `CS(=O)(=O)c1ccc(O[C@H]2c3ccccc3C[C@@H]2CN2CCOCC2)cc1` (racemic) [Example 487, 4-[1-(4-methanesulfonylphenoxy)indan-2-ylmethyl]morpholine] as the molecule, how does the inhibition at 10 µM read?
**A.** 20 to 50%

**Q.** `CN1CCN(c2cccc(O[C@H]3c4cc(Cl)cc(Cl)c4C[C@@H]3N3CCNCC3)c2)C1=O` (racemic) [Example 258, 1-[3-(rac-trans-(1,2)-4,6-dichloro-2-piperazin-1-ylindan-1-yloxy)phenyl]-3-methylimidazolidin-2-one] was tested. Which IC50 did it give?
**A.** < 1 µM

**Q.** How did the IC50 turn out when `CCNS(=O)(=O)c1ccc(O[C@@H]2c3ccccc3C[C@H]2N2CCCC2)cc1` (racemic) [Example 700, N-ethyl-4-(rac-trans-(1,2)-2-pyrrolidin-1-ylindan-1-yloxy)benzenesulfonamide] was run?
**A.** < 1 µM
